# “Also recorded” adds a separate entry of the source.
# Columns and labels:
# [1] = tested on: human fibroblast cell lines (F2); assay: MTT cytotoxic / anti-proliferative assay, normal fibroblast; format: cell-based
# Procedure: (§1) The benxoxazepine derivative compound of the present disclosure was dissolved in DMSO to give a […] concentration. The DMSO concentration was less than 1.0% in all experiments and controls.
# (§2) The evaluation of anti-proliferative activity was preformed to different cancer cells named human cervical adenocarcinoma (HeLa), adenocarcinoma human alveolar basal epithelial cells (A549), human breast cancer (MCF-7), colon adenocarcinoma Caco-2, compared with human fibroblast cell lines (F2). All cells were grown in Dulbecco's modified Eagle's minimal essential medium (DMEM), supplemented with 25 mM glucose, 10% inactivated fetal bovine serum (Flow, McLean, VA, USA), and 1% penicillin/streptomycin, and maintained at 37° C. in a humidified incubator with 5% CO2. The cells with 30-40 passages were used for further investigations.
# (§3) Exponentially growing cells A549, HeLa, Caco-2, MCF-7, and normal fibroblast cell cells have been washed and seeded at 3×10^3 cells/well (100 μL/well) in 96 well microplates (Greiner, Germany). […] In vitro anti-proliferative activity was measured by the cell growth inhibition assay using 3-(4,5-dimethyl-thiazol-2-yl)-2,5-di-phenyltetrazolium bromide (MTT) assay according to the manufacturer's instructions (Promega Corporation, Madison, WI). Briefly, the assay measured the formation of blue formazan product as a result of the reduction of MTT by mitochondrial dehydrogenase, which indicates the normal function of mitochondria and cell viability. The amount of formazan was quantified using a microplate reader (Thermo Fisher Scientific, Waltham, MA, USA) and compared to the optical density obtained for the control (untreated) at 570 nm. The IC50 values were calculated according to the equation for Boltzmann sigmoidal concentration response curve using the nonlinear regression models (GraphPad, Prism Version 7, San Diego, CA, USA). The average of three replicates of IC50 values were calculated and mentioned in the present disclosure Table 1. […]
# [2] = tested on: adenocarcinoma human alveolar basal epithelial cells (A549); assay: MTT cytotoxic / anti-proliferative assay, A549; format: cell-based
# Procedure: as §1, §2
# (§4) Exponentially growing cells A549, HeLa, Caco-2, MCF-7, and normal fibroblast cell cells have been washed and seeded at 3×10^3 cells/well (100 μL/well) in 96 well microplates (Greiner, Germany). After 24 h, cells were confluent, and media was changed, and cells were incubated with the compound of the present disclosure (200-1 μg/mL) for 24 h. In vitro anti-proliferative activity was measured by the cell growth inhibition assay using 3-(4,5-dimethyl-thiazol-2-yl)-2,5-di-phenyltetrazolium bromide (MTT) assay according to the manufacturer's instructions (Promega Corporation, Madison, WI). Briefly, the assay measured the formation of blue formazan product as a result of the reduction of MTT by mitochondrial dehydrogenase, which indicates the normal function of mitochondria and cell viability. The amount of formazan was quantified using a microplate reader (Thermo Fisher Scientific, Waltham, MA, USA) and compared to the optical density obtained for the control (untreated) at 570 nm. The IC50 values were calculated according to the equation for Boltzmann sigmoidal concentration response curve using the nonlinear regression models (GraphPad, Prism Version 7, San Diego, CA, USA). The average of three replicates of IC50 values were calculated and mentioned in the present disclosure Table 1.
# (§5) The anti-proliferative activity of the investigated compound of formula 1 of the present disclosure was expressed in IC50 values (the concentration needed to inhibit 50% of cell growth) compared to untreated cells (negative control).
# [3] = tested on: human cervical adenocarcinoma (HeLa); assay: MTT cytotoxic / anti-proliferative assay, HeLa; format: cell-based
# Procedure: as §1, §2, §3
# [4] = tested on: human breast cancer (MCF-7); assay: MTT cytotoxic / anti-proliferative assay, MCF-7; format: cell-based
# Procedure: as §1, §2, §4, §5
# [5] = tested on: release of TNF-α of A549 cell lines; assay: TNF-α release ELISA, A549; format: cell-based, human; conditions: 1, 5, 10, 25, 50 μg/mL, overnight, ELISA of supernatant
# Procedure: (§6) Non-treated cells were used as negative controls. […] All incubation steps were performed at room temperature.
# [6] = tested on: release of TNF-α of HeLa cell lines; assay: TNF-α release ELISA, HeLa; format: cell-based, human; conditions: 1, 5, 10, 25, 50 μg/mL, overnight, ELISA of supernatant
# Procedure: as §6
# [7] = tested on: release of TNF-α of normal fibroblast cell; assay: TNF-α release ELISA, normal fibroblast; format: cell-based, human; conditions: 1, 5, 10, 25, 50 μg/mL, overnight, ELISA of supernatant
# Procedure: as §6
# [8] = tested on: release of TNF-α of MCF-7 cell lines; assay: TNF-α release ELISA, MCF-7; format: cell-based, human; conditions: 1, 5, 10, 25, 50 μg/mL, overnight, ELISA of supernatant
# Procedure: as §6
# [9] = tested on: release of IL-6 of normal fibroblast cell; assay: IL-6 release ELISA, normal fibroblast; format: cell-based, human; conditions: 1, 5, 10, 25, 50 μg/mL, overnight, ELISA of supernatant
# Procedure: as §6
# [10] = tested on: colon adenocarcinoma Caco-2; assay: MTT cytotoxic / anti-proliferative assay, Caco-2; format: cell-based, human; conditions: MTT
# [11] = tested on: release of IL-6 of HeLa cell lines; assay: IL-6 release ELISA, HeLa; format: cell-based, human; conditions: 1, 5, 10, 25, 50 μg/mL, overnight, ELISA of supernatant
# Procedure: as §6
# [12] = tested on: release of IL-6 of A549 cell lines; assay: IL-6 release ELISA, A549; format: cell-based, human; conditions: 1, 5, 10, 25, 50 μg/mL, overnight, ELISA of supernatant
# Procedure: as §6
# [13] = tested on: release of IL-6 of MCF-7 cell lines; assay: IL-6 release ELISA, MCF-7; format: cell-based, human; conditions: 1, 5, 10, 25, 50 μg/mL, overnight, ELISA of supernatant
# Procedure: as §6
# [14] = tested on: release of TNF-α of Caco-2 cell lines; assay: TNF-α release ELISA, Caco-2; format: cell-based, human; conditions: 1, 5, 10, 25, 50 μg/mL, overnight, ELISA of supernatant
# Procedure: as §6
# [15] = MTT cytotoxic / anti-proliferative assay, Caco-2; format: cell-based, human; conditions: human; calculated SI for cancer cell Caco-2; SI higher than 1.0 considered selective to cancer cell; read-out: Selectivity index (SI) Caco-2
# [16] = 24 h incubation, average of three replicates
# [17] = MTT, 24 h incubation, average of three replicates
smiles,measurement,setting,value
"N.N.[Cl][Pt][Cl] [Cisplatin, cisplatin, reference compound]",IC50 Fibroblast,[1]; [16],2.83 ± 0.12 µg/mL
same,IC50 A549,[2]; [17],3.13 ± 0.53 µg/mL
same,IC50 HeLa,[3]; [16],0.13 µg/mL
same,IC50 MCF-7,[4]; [17],1.51 ± 0.10 µg/mL
same,"effect on the release of TNF-α, A549",[5],release TNF-α
same,"effect on the release of TNF-α, HeLa",[6],release TNF-α
same,"effect on the release of TNF-α, normal fibroblast cells",[7],not able to induce the release
same,"effect on the release of TNF-α, MCF-7",[8],release TNF-α
same,"effect on the release of IL-6, normal fibroblast cells",[9],not able to induce the release
"C[S+](C)[O-] [DMSO %, dimethyl sulfoxide]",IC50 Fibroblast (DMSO %),"[1]; DMSO, value as % DMSO",0.13 ± 0.02%
same,IC50 A549 (DMSO %),"[2]; MTT, DMSO, value as % DMSO",0.33 ± 0.05%
same,IC50 HeLa (DMSO %),"[3]; DMSO, value as % DMSO",0.15 ± 0.02%
same,IC50 MCF-7 (DMSO %),"[4]; MTT, DMSO, value as % DMSO",0.097 ± 0.02%
same,IC50 Caco-2 (DMSO %),"[10]; DMSO, value as % DMSO",23.40 ± 3.20%
c1ccc2c3c(ccc2c1)OCCn1c-3nc2ccccc21 [compound of the general Formula (I)],"effect on the release of IL-6, HeLa",[11],stimulated the release of IL-6
same,"effect on the release of IL-6, HeLa",[11]; listed as tested compound,able to stimulate the release of IL-6
same,IC50,"[1]; Homo sapiens, Fibroblast, 24 h incubation, average of three replicates",19.9 ± 1.4 µg/mL
same,IC50,"[2]; Homo sapiens, A549, MTT, 24 h incubation, average of three replicates",15.7 ± 0.54 µg/mL
same,Selectivity index (SI) A549,"[2]; calculated SI for cancer cell A549, SI higher than 1.0 considered selective to cancer cell",1.27
same,IC50,"[3]; Homo sapiens, HeLa, 24 h incubation, average of three replicates",0.003 µg/mL
same,IC50,"[4]; Homo sapiens, MCF7, MTT, 24 h incubation, average of three replicates",17.6 ± 0.72 µg/mL
same,Selectivity index (SI) MCF-7,"[4]; calculated SI for cancer cell MCF-7, SI higher than 1.0 considered selective to cancer cell",1.13
same,"effect on the release of TNF-α, normal fibroblast cells",[7],not able to induce the release
same,"effect on the release of IL-6, A549",[12],stimulated the release of IL-6
same,"effect on the release of IL-6, A549",[12]; listed as tested compound,able to stimulate the release of IL-6
same,"effect on the release of IL-6, MCF-7",[13],stimulated the release of IL-6
same,"effect on the release of IL-6, MCF-7",[13]; listed as tested compound,able to stimulate the release of IL-6
same,"effect on the release of TNF-α, Caco-2",[14],only 50 μg/mL concentration was able to stimulate Caco-2 cell lines to significantly release TNF-α
same,"effect on the release of TNF-α, Caco-2",[14]; listed as tested compound,able to stimulate Caco-2 cell lines to significantly release TNF-α when treated with 50 μg/mL concentration only
same,"effect on the release of IL-6, normal fibroblast cells",[9]; listed as tested compound,no effect; also recorded: not able to induce the release
same,selectivity ratio at 24 h,[15],0.48
same,IC50,"[10]; Homo sapiens, Caco-2, 24 h incubation, average of three replicates",41.3 µg/mL
